This is an account of results in the NIST ThermoML archive (doi:10.1016/j.fluid.2015.06.016).

For this data set the following is noted: 303.15 K; 101.33 kPa; Liquid; Vibrating tube method.

Each structure is given as a SMILES string. Numbers after ± are expanded uncertainties.

For `NCCO.O=CO` [2-hydroxyethylammonium formate], the mass density (usually the mass of a sample divided by its volume) came to 1184.46 ± 1.2 kg/m3.

`CCCCCCCCCC` [decane]: the mass density came to 722.439 ± 0.28 kg/m3.

In the case of `OCC(O)CO` [glycerol], the mass density turned out to be 1257.13 ± 0.25 kg/m3.

Regarding `O=S1(=O)CCCC1` [sulfolane], the mass density was determined as 1265.75 ± 0.45 kg/m3.

Take `Cc1ccccc1` [toluene]: the mass density worked out at 857.606 ± 0.18 kg/m3.
